Source: US20120010158A1, “TUMOR NECROSIS FACTOR INHIBITING PEPTIDES AND USES THEREOF” (PANACEA BIOTEC LTD., priority 2008, published 2012)
Residues, ends and D or L forms follow the SMILES beside them.

How the values were obtained:
TNF-R1 = biological target: T1, TNF-R1 (Homo sapiens, UniProt P19438); assay: Binding of peptide to TNF-R1 on U937 cells by flow cytometry; conditions: untreated 83%
T1 construct: endogenous in cells; host or cells: U937
T1 sequence (P19438 30-455): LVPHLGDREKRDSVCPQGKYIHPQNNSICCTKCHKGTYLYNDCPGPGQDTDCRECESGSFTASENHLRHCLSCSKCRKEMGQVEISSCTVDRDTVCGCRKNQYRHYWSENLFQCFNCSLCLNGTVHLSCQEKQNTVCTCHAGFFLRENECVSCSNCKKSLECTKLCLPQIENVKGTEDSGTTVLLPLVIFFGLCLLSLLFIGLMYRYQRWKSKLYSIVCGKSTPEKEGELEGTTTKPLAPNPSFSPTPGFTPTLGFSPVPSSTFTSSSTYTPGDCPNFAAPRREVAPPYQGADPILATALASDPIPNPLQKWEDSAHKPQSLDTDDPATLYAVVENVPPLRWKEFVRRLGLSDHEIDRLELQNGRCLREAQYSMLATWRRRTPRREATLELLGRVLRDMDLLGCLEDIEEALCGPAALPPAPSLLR
Excerpt: (§1) Flow cytometry assay technique was used to investigate binding of peptides to TNF-α or TNF-R1 employing U937 cells (a TNF-receptor expressing human leukemia cell line). Binding of peptide to TNF-α prevents TNF-α from interacting with TNF-R1 which can be analyzed by flow cytometry. Similarly, direct binding of peptide with TNF-R1 reduces percent TNF-R1 positive cells which can be analyzed by flow cytometry.
U937 cells were used to quantify the binding of peptides to TNF-R 1. TNF-alpha upon addition to U937 cells binds to its cognate receptor TNF-R1 on U937 cells leading to a reduction in percent cells positive for TNF-R1. TNF-alpha inhibiting peptides according to present invention bind to TNF-R1 and reduce the TNF-R1 positive cells after incubation of U937 cells with said peptides.
Peptide of Sequence ID-6 was analyzed for binding of peptide to TNF-R1 on U937 cells using flow cytometry. […] After two washes in binding buffer, the cells were analyzed using FACS Calibur flow cytometer (Becton Dickinson). The gates were set on the live cell population, and the degree of binding to TNF-R1 was calculated on the basis of percent cells positive for TNF-RI expression.

[1] = tested on: collagen induced arthritis; assay: Murine model of collagen induced arthritis; assay type: in vivo, C57BL/6 mice; conditions: for anticollagen IgG1/IgG2a ratio after therapy: vs PBS treated arthritic animals, FIG. 8b
Description: Male C57BL/6 mice obtained from animal house at Lalru, Panacea Biotec were used to develop a murine model of rheumatoid arthritis. Mice were intradermally immunized with 150 μg of chicken type-II collagen (Sigma) emulsified in complete Freunds adjuvant (CFA) (Sigma). On day 17 after primary immunization, a booster immunization with 100 μg of chick type II collagen in incomplete Freunds adjuvant was administered to animals (Ethan M Shevach, Curr. Prot. Immunol. 2002: 15.0.1-15.0.6; Inglis J et al, 2008 Nature Protocols, 4:612-618). Increase in paw thickness as compared to controls (healthy, male C57BL/6 mice) and presence of anti-collagen IgG antibodies were the parameters to assess development of arthritis. Paw thickness in animals was measured using digital Vernier Calipers and anticollagen antibodies were measured in the mouse serum on day 35 after immunization.
Chicken type-II collagen (sigma) was coated onto ELISA plates at 1 μg/ml in PBS and incubated overnight at 4° C. After three washes in PBS-0.05% Tween 20 (PBS-T), serum from collagen, vehicle (CFA) and PBS (control) injected mice was added to separate wells at dilution of 1:100. Plate was incubated at room temperature for 2 h. After 5 washes in PBS-T rabbit antimouse IgG HRP (Bethyl Laboratories) was added to wells at 1:10000 dilutions and incubated at room temperature for 45 min. After washing the plate in PBS-T, OPD (ortho-phenyl diamine) as substrate was added and colour development observed. Colour development was stopped by 2N HCl. Absorbance was recorded at 490 nm (Ethan M Shevach, Cum Prot. Immunol. 2002: 15.0.1-15.0.6).
Determination of optimum dose and schedule of peptide with Sequence ID-6 was performed in a murine model of collagen induced arthritis (as prepared above). Arthritic mice were randomized according to paw thickness and divided into separate groups of 4-5 animals for intravenous administration of peptide sequence ID-6.
Efficacy of peptide with sequence ID-6 and sequence ID-2 was compared with Etanercept (Marketed and approved TNF-alpha inhibiting agent with the brand name “Enbrel”) using a murine model of collagen induced arthritis (As prepared and described above). Peptides of Sequence ID-6, Sequence ID-2 and Etanercept were intravenously administered to the arthritic mice at a dose of 5 mg/kg three times in first week followed by once every week for three weeks.
Development of disease in collagen induced arthritis is accompanied by an increase in Th1 or proinflammatory response. IgG1/IgG2a levels were measured to determine that whether treatment with the peptides of the present invention and Etanercept improved clinical disease in murine model by decreasing Th1 response. Lower IgG1/IgG2a ratio would indicate down regulation of Th1 or proinflammatory response.

[2] = tested on: adjuvant induced arthritis; assay: Rat model of adjuvant induced arthritis; assay type: in vivo, Wistar rats; conditions: 2.5 mg/kg once every day for 6 days, then 3 doses every alternate day; for clinical score: p<0.05, score 0-4, FIG. 9b; for paw thickness: vs PBS treated arthritic rats, FIG. 9a
Description: In vivo efficacy of peptide with sequence ID-6 was evaluated in a rat model of “adjuvant” induced arthritis. This model is widely used for developing and testing anti-inflammatory drugs. Adjuvant arthritis (AA) in rats mimics features of inflammatory arthritis in humans (Pearson et al, 1956, Proc. Soc. Exp. Biol. Med. 112:95-10). AA was induced in male Wistar rats by intradermal immunization with 150 μg of complete freunds adjuvant followed by a booster immunization at day 7 with incomplete freunds adjuvant. Arthritis was evaluated in animals by clinical scoring and measurement of paw and joint thickness using digital vernier calipers. The clinical score was assigned according to following criteria: 0=no erythema or swelling 1=slight erythema or swelling of one of toes or fingers 2=erythema and swelling of more than one toe or finger 3=erythema and swelling of the ankle or wrist 4=complete erythema and swelling of toes or fingers and ankle or wrist and inability to bend the ankle or wrist. Arthritic rats were administered with peptide Sequence ID-6 at a dose of 2.5 mg/kg, once every day for 6 days in the first week followed by 3 doses every alternate day in the second week. Another group of arthritic animals received Etanercept (Et) in similar manner.

TNF-alpha [3] = biological target: T2, TNF-alpha (Homo sapiens, UniProt P01375)
Description: (§2) The peptides of the present invention were analyzed for inhibition of TNF-alpha induced cytotoxicity employing murine fibroblast cell line, L929. Addition of TNF-alpha to L929 cells (ATCC) induces cytotoxicity, which can be estimated by staining of viable cells with vital dyes like MTT (3-(4,5-Dimethylthiazol-2-yl)-2,5-diphenyltetrazolium bromide, a tetrazole) or crystal violet followed by extraction of dyes with methanol. […] The assay was performed as follows:
(§3) L929 cells (maintained in Dulbecco's modified Eagle's medium supplemented with 10% FCS) were seeded at a density of 2×10^5 cells/ml in a microtitre plates, and incubated with actinomycin D (ACT-D) at concentration of 1 μg/ml for 2 h at 37° C. and 5% CO2. TNF-α (100 pg/ml) preincubated with 75 μM of peptide solution at 37° C. was added to L929 cells and incubated overnight at 37° C., 5% CO2. […]
(§4) The live cells of test and positive control plates were then stained with 100 μl/well of 0.05% crystal violet and incubated at room temperature for 15 min., washed with PBS and kept for overnight drying at room temperature. Crystal violet was extracted from the cells by 100 μl per well of methanol and absorbance of extracted crystal violet dye was estimated at 595 nm. Percent inhibition in cytotoxicity was calculated by the following formula: […]

TNF-alpha [4] = biological target: T2, TNF-alpha; assay: Inhibition of TNF-α binding to its receptor TNF-R1 on U937 cells (flow cytometry); set-up: host or cells: U937 cells carry the partner receptor endogenously; conditions: U937 cells with complex of peptide and TNF-alpha (5 ng); untreated 78±1%, TNF-alpha alone 32±10%
Excerpt: as §1
TNF-alpha binds to its cognate receptor TNF-R1 on U937 cells (ATCC) leading to a reduction in percent cells positive for TNF-R1. TNF-alpha binding peptides bind to TNF-alpha and prevent the interaction of TNF-alpha with TNF-R1. The percent cells positive for TNF-R1 can be quantified by staining with fluorochrome conjugated anti-TNF-R1 antibody.
Peptides of Sequence ID-2 and Sequence ID-6 were analyzed for inhibition of TNF-alpha binding to its receptor TNF-R1 on U937 cells. Inhibition of TNF-alpha binding to TNF-RI on U937 cells by peptides with sequence ID-2 or sequence ID-6 was estimated, using fluorescent activated cell sorter (FACS, FACSCALIBUR, Becton Dickinson, USA). […]

TNF-alpha [5] = biological target: T2, TNF-alpha; assay: Inhibition of TNF-alpha mediated cytotoxicity of L-929 cells (crystal violet)
Description: as §2, §3, §4

[6] = 5 mg/kg i.v. three times in first week then once every week for three weeks, pre vs post treatment, Example 5(d), FIG. 8a
[7] = 5 mg/kg i.v. three times in first week then once every week for three weeks

T2 sequence (P01375 77-233 limits assumed, species assumed): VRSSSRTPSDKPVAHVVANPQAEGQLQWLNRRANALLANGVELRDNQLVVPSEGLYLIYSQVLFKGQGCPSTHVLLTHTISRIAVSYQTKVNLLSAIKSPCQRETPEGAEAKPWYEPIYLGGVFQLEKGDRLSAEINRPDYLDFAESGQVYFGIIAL

Row | Compound | paw thickness [1, 6] | anticollagen IgG1/IgG2a ratio after therapy [1, 7] | clinical score [2] | paw thickness [2] | also measured
1 | NC(=O)C[C@H](NC(=O)[C@@H](N)CO)C(=O)N[C@@H](Cc1ccc(O)cc1)C(=O)O [Sequence ID-6, Ser--Asn--Tyr] (H-Ser-Asn-Tyr-OH; N-terminus assumed) | significant lowering of paw thickness | lower ratio of IgG1/IgG2a | significant lowering of clinical score | Lowering of paw thickness | percent cells positive for TNF-R1 (TNF-R1; U937 cells incubated with peptide 250 μM): 32%; paw thickness ([1]; 5 mg/kg i.v. thrice weekly followed by once every week for 3 wks, Example 5(c), FIG. 7): significant reduction of paw thickness; paw thickness ([1]; 7.5 mg/kg i.v. once every week for 4 wks, Example 5(c), FIG. 7): insignificant lowering of paw thickness; ability to inhibit TNF-alpha induced cytotoxicity compared with Etanercept (TNF-alpha [3]): comparable ability; percent cells positive for TNF-R1 (TNF-alpha [4]): 57±8%
2 | CC(C)C[C@@H]1NC(=O)[C@H](Cc2ccc(O)cc2)NC(=O)[C@H](CCC(N)=O)NC(=O)[C@H](CO)NC(=O)[C@H](Cc2c[nH]c3ccccc23)NC(=O)[C@@H](NC(=O)[C@@H](N)Cc2ccc(O)cc2)CSSC[C@@H](C(=O)N[C@@H](Cc2ccc(O)cc2)C(=O)O)NC1=O [Cyclic WSQYL, cy Trp-Ser-Gln-Tyr-Leu CY] |  |  |  |  | inhibition at 75 µM (TNF-alpha [5]): 60 ± 10%
3 | TNF-alpha |  |  |  |  | percent cells positive for TNF-R1 (TNF-R1; U937 cells incubated with recombinant TNF-alpha 10 ng): 31.6%
4 | Etanercept [reference compound] | significant lowering of paw thickness | lower ratio of IgG1/IgG2a | significant lowering of clinical score | Lowering of paw thickness | 
